Assay results as given in ChEMBL document CHEMBL1201862, “PubChem BioAssay data set” (2004).
Calls of active or inactive are those of the source.

How the values were obtained:
[1] = target: T1, Tyrosine-protein phosphatase non-receptor type 7 (Homo sapiens, UniProt P35236); assay type: functional
T1 sequence (P35236 whole entry): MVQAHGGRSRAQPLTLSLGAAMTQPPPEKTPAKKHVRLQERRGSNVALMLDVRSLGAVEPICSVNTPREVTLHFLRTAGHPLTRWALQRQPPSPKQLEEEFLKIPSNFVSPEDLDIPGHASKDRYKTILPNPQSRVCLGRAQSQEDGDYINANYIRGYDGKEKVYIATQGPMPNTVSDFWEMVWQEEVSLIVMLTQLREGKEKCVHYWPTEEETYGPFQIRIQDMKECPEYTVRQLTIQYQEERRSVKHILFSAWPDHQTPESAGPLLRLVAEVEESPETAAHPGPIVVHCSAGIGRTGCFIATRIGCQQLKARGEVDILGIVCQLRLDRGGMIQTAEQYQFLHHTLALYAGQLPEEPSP

[2] = target: T2, Tyrosine-protein phosphatase non-receptor type 22 (Homo sapiens, UniProt Q9Y2R2); assay type: functional
T2 sequence (Q9Y2R2 whole entry): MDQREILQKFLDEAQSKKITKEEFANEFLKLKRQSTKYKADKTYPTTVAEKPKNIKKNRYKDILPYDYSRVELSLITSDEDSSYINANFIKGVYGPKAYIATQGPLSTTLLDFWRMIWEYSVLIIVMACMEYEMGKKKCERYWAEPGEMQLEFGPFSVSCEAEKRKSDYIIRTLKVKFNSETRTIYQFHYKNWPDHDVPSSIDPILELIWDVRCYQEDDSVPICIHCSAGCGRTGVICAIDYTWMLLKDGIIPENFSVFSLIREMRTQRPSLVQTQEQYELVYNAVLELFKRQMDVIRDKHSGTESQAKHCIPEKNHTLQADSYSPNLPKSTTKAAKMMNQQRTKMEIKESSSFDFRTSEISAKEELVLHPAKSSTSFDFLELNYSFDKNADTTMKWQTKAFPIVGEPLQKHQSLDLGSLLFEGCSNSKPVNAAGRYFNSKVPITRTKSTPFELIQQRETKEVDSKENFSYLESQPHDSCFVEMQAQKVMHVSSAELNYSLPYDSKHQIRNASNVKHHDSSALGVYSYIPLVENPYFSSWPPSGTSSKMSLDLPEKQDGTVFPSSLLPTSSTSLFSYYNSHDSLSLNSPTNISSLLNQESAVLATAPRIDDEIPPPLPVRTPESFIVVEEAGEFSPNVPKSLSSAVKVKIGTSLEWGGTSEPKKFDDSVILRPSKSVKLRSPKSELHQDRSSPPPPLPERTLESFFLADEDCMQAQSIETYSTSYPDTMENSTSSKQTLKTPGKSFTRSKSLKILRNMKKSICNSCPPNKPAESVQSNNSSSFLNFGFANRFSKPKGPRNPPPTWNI

[3] = target: T2, Tyrosine-protein phosphatase non-receptor type 22; assay type: functional; remark: listed apart in the source
[4] = target: T3, Corticotropin-releasing factor receptor 2/Corticotropin-releasing factor-binding protein (Homo sapiens, UniProt P24387+Q13324); assay: Dose Response confirmation of uHTS hits for small molecule antagonists of the CRF-binding protein and CRF-R2 receptor complex.; assay type: functional; details: read-out: IC50_Mean
T3 sequence (Q13324 whole entry): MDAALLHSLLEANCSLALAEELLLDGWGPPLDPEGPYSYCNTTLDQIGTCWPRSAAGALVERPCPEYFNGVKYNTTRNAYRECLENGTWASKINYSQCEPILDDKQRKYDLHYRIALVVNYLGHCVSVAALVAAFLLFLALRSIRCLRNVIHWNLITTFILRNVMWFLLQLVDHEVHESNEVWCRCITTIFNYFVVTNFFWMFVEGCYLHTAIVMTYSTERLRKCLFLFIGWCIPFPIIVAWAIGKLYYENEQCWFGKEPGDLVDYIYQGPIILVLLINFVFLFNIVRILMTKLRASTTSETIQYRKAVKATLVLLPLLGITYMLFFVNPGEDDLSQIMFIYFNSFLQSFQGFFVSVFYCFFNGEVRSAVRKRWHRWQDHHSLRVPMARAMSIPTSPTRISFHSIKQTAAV
T3 sequence (P24387 whole entry): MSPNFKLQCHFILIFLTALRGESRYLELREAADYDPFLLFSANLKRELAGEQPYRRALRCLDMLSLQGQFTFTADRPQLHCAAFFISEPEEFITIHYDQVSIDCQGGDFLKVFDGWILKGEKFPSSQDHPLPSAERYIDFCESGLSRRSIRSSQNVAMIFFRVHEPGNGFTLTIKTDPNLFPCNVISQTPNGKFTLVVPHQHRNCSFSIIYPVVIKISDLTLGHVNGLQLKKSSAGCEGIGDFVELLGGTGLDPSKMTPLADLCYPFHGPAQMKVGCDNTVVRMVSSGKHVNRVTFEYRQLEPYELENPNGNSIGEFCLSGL

[5] = target: T3, Corticotropin-releasing factor receptor 2/Corticotropin-releasing factor-binding protein; assay: activators of CRF receptor 2 with binding protein – uHTS hits, confirmation (AID 602473); assay type: functional; details: read-out: EC50_Mean
[6] = target: T4, Ubiquitin-conjugating enzyme E2 N (Homo sapiens, UniProt P61088); assay type: functional
T4 sequence (P61088 whole entry): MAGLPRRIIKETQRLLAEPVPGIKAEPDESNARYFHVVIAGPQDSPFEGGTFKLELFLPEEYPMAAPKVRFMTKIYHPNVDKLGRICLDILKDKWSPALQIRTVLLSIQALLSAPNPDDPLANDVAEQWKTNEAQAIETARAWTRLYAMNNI

[7] = target: DNA dC->dU-editing enzyme APOBEC-3A (Homo sapiens, UniProt P31941); assay: Dose Response confirmation of small molecule APOBEC3A DNA Deaminase Inhibitors via a fluorescence-based single-stranded DNA deaminase assay. [Related pubchem assays (depositor defined):AID493011, AID493024]; assay type: functional
[8] = target: DNA dC->dU-editing enzyme APOBEC-3G (Homo sapiens, UniProt Q9HC16); assay type: functional;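 also: Dose-response counterscreen measuring inhibition of APOBEC3G DNA deaminase activity, run while confirming APOBEC3A inhibitors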
[9] = THP-1 cell cytotoxicity, dose response, cytotoxicity control for non-replicating M. tuberculosis project (AID 489025); assay type: functional
[10] = Vero E6 cell cytotoxicity, dose response, cytotoxicity control for non-replicating M. tuberculosis project, secondary assay (AID 492998); assay type: functional, VeroE6; details: Vero C1008
[11] = target: T5, Heat shock factor protein 1 (Mus musculus, UniProt P38532); assay: enhancement of HSF1-driven luciferase signal – cell-based, NIH3T3, luminescence, dose retest, confirmation (AID 435004); assay type: functional;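 also: stress induced by proteasome inhibitor MG132 added 30 min after compound; luciferase reporter driven by HSF1 response element in NIH3T3 cells; actives raise luminescence as potentiators of the MG132 stress response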
T5 sequence (P38532 whole entry): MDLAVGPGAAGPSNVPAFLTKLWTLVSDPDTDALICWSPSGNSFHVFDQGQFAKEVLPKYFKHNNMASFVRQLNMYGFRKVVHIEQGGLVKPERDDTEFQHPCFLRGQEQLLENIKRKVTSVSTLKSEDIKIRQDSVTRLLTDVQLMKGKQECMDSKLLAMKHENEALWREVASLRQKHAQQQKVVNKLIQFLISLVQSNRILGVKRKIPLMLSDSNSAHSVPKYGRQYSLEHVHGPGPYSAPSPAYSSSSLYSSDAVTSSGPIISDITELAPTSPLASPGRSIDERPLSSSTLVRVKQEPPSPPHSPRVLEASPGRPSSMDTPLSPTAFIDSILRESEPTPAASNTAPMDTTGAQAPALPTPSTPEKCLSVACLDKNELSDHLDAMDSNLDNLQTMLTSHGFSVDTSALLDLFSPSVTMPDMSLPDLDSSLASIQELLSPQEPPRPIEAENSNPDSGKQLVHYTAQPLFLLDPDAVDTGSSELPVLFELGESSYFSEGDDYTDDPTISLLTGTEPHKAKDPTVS

cells = assay type: functional
Bcl-2-related protein A1 = target: T6, Bcl-2-related protein A1 (Mus musculus, UniProt Q07440); assay type: functional;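 also: confirmatory dose–response counterscreen on Bfl-1, used to check hits from a UBC13 polyubiquitin inhibitor campaign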
T6 sequence (Q07440 whole entry): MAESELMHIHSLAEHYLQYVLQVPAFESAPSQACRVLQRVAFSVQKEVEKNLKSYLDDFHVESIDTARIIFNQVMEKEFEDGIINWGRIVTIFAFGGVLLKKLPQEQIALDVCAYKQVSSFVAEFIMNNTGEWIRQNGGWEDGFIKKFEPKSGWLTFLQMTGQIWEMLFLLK

[12] = target: T4, Ubiquitin-conjugating enzyme E2 N; assay type: functional; remark: listed apart in the source
[13] = tested on: Streptococcus sp. 'group A'; assay: Streptococcus pyogenes SK(-)GAS viability under kanamycin – luminescence, BacTiterGlo, confirmation, counter-screen for streptokinase expression inhibitor project, dose response (AID 1900); assay type: functional, organism-based
Beta-galactosidase [14] = target: T7, Beta-galactosidase (Escherichia coli, UniProt Q8VNN2); assay: PubChem AID 485352; assay type: functional
[15] = target: T8, Type-1 angiotensin II receptor (Homo sapiens, UniProt P30556); assay: antagonism of angiotensin II type 1 receptor – cell-based, uHTS hits, selectivity assay for APJ receptor antagonist project, dose response (AID 463214); assay type: functional;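 also: antagonist potency against angiotensin II stimulated AT1 response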
T8 sequence (P30556 whole entry): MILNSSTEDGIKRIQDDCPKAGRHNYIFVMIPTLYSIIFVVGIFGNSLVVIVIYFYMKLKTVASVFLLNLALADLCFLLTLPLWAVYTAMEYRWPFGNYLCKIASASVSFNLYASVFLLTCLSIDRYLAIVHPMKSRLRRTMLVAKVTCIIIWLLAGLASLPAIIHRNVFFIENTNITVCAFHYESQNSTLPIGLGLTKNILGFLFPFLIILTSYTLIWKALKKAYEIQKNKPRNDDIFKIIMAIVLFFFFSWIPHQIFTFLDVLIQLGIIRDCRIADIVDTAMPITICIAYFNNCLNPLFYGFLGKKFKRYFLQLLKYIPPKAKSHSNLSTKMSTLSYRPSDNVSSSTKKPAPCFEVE

[16] = target: T9, Kappa-type opioid receptor (Homo sapiens, UniProt P41145); assay type: functional
Beta-galactosidase [17] = target: T7, Beta-galactosidase; assay type: functional
[18] = target: T9, Kappa-type opioid receptor; assay type: functional; remark: listed apart in the source
Streptococcus = assay: GAS UMAA2166 growth inhibition – luminescence, BacTiterGlo, counter-screen for streptokinase expression inhibitor project, dose response (AID 1915); assay type: functional, organism-based;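 also: potency for reduction of bacterial viability or growth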
[19] = target: T10, Microphthalmia-associated transcription factor (Homo sapiens, UniProt O75030); assay: reducers of TRPM1 reporter luminescence, concentration series – cell-based, SK-MEL-5, cherry-picked, set 3, MITF inhibitor project, dose response (AID 493073); assay type: functional;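 also: SK-MEL-5 melanoma cells with luciferase driven by the MITF target TRPM1 promoter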
T10 sequence (O75030 whole entry): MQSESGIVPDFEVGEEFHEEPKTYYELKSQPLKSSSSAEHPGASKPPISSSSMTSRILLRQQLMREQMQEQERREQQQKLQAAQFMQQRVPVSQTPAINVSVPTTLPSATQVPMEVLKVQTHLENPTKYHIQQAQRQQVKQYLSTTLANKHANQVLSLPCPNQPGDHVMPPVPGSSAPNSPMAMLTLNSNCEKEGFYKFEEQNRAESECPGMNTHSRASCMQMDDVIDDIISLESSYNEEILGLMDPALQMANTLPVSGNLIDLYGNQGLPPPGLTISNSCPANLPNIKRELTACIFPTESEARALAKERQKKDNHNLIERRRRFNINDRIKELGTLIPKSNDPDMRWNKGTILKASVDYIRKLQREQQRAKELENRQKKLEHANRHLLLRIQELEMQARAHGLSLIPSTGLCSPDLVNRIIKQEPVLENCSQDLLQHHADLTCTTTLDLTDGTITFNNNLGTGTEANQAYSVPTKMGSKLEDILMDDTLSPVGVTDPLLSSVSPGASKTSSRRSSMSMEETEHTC

DNA dC->dU-editing enzyme APOBEC-3G, sequence (Q9HC16 whole entry): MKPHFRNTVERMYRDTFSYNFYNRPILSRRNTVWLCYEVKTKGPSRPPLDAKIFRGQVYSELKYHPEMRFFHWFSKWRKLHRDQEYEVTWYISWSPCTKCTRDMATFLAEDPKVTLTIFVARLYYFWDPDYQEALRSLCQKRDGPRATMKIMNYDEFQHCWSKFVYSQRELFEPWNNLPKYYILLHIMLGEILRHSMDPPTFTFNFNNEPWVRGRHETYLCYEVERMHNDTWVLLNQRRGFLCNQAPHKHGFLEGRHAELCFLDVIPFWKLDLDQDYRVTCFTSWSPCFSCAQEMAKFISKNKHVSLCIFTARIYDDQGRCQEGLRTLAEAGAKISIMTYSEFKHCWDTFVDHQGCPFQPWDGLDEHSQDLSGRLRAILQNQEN
DNA dC->dU-editing enzyme APOBEC-3A, sequence (P31941 whole entry): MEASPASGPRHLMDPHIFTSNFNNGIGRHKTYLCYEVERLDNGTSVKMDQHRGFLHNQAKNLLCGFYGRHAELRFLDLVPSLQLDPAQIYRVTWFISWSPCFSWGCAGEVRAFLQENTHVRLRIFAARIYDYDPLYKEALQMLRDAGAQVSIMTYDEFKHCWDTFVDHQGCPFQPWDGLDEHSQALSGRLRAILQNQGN
T9 sequence (P41145 whole entry): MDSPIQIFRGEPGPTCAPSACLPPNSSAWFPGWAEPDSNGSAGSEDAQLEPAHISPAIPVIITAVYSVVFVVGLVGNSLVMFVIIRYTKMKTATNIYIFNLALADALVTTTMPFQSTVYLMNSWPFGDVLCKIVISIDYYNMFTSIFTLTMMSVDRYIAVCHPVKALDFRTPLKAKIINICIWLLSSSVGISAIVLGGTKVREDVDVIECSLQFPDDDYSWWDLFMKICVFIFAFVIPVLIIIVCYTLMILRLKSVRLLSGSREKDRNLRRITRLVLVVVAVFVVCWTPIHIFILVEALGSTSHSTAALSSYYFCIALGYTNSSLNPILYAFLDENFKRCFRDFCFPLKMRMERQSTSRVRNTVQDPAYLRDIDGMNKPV
T7 sequence (Q8VNN2 whole entry): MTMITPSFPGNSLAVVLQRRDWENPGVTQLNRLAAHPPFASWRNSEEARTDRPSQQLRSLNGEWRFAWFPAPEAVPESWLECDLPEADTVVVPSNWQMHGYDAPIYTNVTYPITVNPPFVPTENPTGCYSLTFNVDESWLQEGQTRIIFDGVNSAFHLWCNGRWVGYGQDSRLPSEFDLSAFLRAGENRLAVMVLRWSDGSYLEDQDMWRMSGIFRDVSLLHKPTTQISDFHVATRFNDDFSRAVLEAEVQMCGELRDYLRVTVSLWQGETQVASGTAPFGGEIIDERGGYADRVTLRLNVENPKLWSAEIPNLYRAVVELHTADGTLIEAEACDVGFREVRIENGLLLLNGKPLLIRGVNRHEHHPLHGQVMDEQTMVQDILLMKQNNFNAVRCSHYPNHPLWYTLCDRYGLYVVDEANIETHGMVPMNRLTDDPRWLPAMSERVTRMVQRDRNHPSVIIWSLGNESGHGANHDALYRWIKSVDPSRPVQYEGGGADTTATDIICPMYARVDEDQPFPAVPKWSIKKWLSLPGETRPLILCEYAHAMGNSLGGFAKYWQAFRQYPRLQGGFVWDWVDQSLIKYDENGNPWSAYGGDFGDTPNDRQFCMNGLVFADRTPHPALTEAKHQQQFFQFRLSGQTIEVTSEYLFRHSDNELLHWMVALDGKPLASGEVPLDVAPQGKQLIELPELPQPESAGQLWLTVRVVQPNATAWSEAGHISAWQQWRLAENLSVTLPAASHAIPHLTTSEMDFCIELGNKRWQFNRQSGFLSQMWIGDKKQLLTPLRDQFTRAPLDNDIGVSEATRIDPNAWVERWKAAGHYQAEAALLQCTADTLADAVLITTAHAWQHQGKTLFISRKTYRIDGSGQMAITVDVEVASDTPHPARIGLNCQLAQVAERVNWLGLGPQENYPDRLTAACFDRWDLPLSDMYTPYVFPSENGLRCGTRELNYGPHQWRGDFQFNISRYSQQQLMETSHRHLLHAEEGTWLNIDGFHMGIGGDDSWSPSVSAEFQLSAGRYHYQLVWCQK

CCOc1ccc(C(=O)Nc2ccc(Cl)cn2)cc1Cl
IC50 [1]: > 79.4 µM (inactive)
IC50 [2]: > 79.4 µM (inactive)
IC50 [3]: > 79.4 µM (inactive)
IC50 [4]: > 47.1 µM (inactive)
EC50 [5]: > 53 µM (inactive)

Cc1cc(NC(=O)Cn2c(=O)n(CCCCC(=O)NC3CCN(Cc4ccccc4)CC3)c(=O)c3ccccc32)[nH]n1
IC50 [1]: > 79.4 µM (inactive)
IC50 [2]: > 79.4 µM (inactive)
IC50 [6]: > 20 µM (inactive)
IC50 [3]: > 79.4 µM (inactive)

O=C(CSc1ncnc2nc[nH]c12)Nc1ccccc1C(F)(F)F
IC50 [7]: 50.8 µM (active)
IC50 [8]: 93.7 µM (active)

CCC(=O)Nc1cc(C(=O)O)ccc1S(=O)(=O)c1ccc(C)cc1
IC50 [7]: 16.4 µM (active)
IC50 [8]: 42.2 µM (active)

Cc1ccc(-c2cc(C(F)F)nc(S(C)(=O)=O)n2)cc1
CC50 [9]: 23.9 µM (active)
CC50 [10]: > 20 µM (active)
EC50 [11]: 13.1 µM (active)
IC50 (cells): 7.88 µM (active)

CCOC(=O)NC(=O)C(=CNc1ccc(C)cc1)C(=O)NC(=O)OCC
IC50 [1]: > 79.4 µM (inactive)
IC50 [2]: > 79.4 µM (inactive)
IC50 [3]: > 79.4 µM (inactive)

COc1ccc(CCNC(=O)CN(C2CCCCC2)S(C)(=O)=O)cc1OC
IC50 [7]: 4.1 µM (active)
IC50 [8]: 5.58 µM (active)

Cc1ccc(CN2CCC(CNC(=O)c3ccc(NC(=O)C4=CSCCO4)cc3)CC2)cc1
IC50 (Bcl-2-related protein A1): > 20 µM (inactive)
IC50 [6]: 19.4 µM (active)
IC50 [12]: > 20 µM (inactive)

COCCN(CC(=O)Nc1cccc(C)c1C)C(=O)CN1C(=O)NC2(CCCCC2)C1=O
IC50 [7]: 11.1 µM (active)
IC50 [8]: 12.2 µM (active)

CCCOc1cccc(-c2cc(C(=O)N/N=C/c3ccccn3)c3ccccc3n2)c1
EC50 [13]: 1.95 µM (active)
EC50 (Beta-galactosidase [14]): > 40 µM (inactive)
IC50 [15]: 5.9 µM (active)
IC50 [16]: 8.44 µM (active)
EC50 (Beta-galactosidase [17]): > 31.5 µM (inactive)
IC50 [18]: > 32 µM
EC50 (Streptococcus): 2.21 µM (active)

O=C(CNC(=O)c1cccc(F)c1)N/N=C/c1ccc([N+](=O)[O-])s1
CC50 [9]: 28 µM (active)
CC50 [10]: > 20 µM (active)
AC50 [19]: 7.45 µM (active)
IC50 (cells): 30.7 µM (active)

O=[N+]([O-])c1cc(Br)cc(/C=N/n2cnnc2)c1O
IC50 [1]: > 79.4 µM (inactive)
IC50 [2]: > 79.4 µM (inactive)
IC50 [3]: > 79.4 µM (inactive)
